Reference: BindingDB's records for PubMed 7791120 (Hospital Saint-Antoine, 1995)
“And” between values parts separate entries of the source, which are not always exact repeats. Equal values may be shown once.

Biological target: Neurotensin (Cavia porcellus, UniProt P32560)

Ki | SMILES
0.99 nM and 2.5 nM | COc1cccc(OC)c1-c1cc(C(=O)NC2(C(=O)O)C3CC4CC(C3)CC2C4)nn1-c1ccnc2cc(Cl)ccc12 (centres undefined)
1.7 nM and 4.5 nM | COc1cccc(OC)c1-c1cc(C(=O)N[C@H](C(=O)O)C2CCCCC2)nn1-c1ccnc2cc(Cl)ccc12
1600 nM | CCC(C)C(N)C(=O)C(C)(CC(=O)C(N)CCCCN)C(C(=O)C(N)Cc1ccc(O)cc1)(C(=O)C1CCCN1)C(N)(C(=O)O)C(=O)C(N)C(C)CC (centres undefined) [NSC_3025353]
2000 nM and 2100 nM | COc1cccc(OC)c1-c1cc(C(=O)N[C@@H](C(=O)O)C2CCCCC2)nn1-c1ccnc2cc(Cl)ccc12 [SR 49711]
